This assay has as its target BTK kinase (Homo sapiens (Human), UniProt Q06187). Put plainly: In vitro assay for the inhibition of BTK kinase activity (Mobility-Shift Assay). It is filed as biochemical. The text has this:
Mobility-Shift Assay, which is microfluidic chip technology, applies the basic concept of capillary electrophoresis to microfluidic environments. The substrate used for the experiment is a polypeptide with a fluorescent label. Under the action of enzyme in the reaction system, the substrate is transformed into a product, and the charge the substrate carries also changes accordingly. The use of the charge difference between the substrate and the product involved in Mobility-Shift Assay achieves the separating of the two, and they are tested respectively. The test results are expressed by conversion rates.
(3) 100% DMSO was added to the positive control well and the negative control well, respectively;
BTK kinase, sequence (Q06187 whole entry): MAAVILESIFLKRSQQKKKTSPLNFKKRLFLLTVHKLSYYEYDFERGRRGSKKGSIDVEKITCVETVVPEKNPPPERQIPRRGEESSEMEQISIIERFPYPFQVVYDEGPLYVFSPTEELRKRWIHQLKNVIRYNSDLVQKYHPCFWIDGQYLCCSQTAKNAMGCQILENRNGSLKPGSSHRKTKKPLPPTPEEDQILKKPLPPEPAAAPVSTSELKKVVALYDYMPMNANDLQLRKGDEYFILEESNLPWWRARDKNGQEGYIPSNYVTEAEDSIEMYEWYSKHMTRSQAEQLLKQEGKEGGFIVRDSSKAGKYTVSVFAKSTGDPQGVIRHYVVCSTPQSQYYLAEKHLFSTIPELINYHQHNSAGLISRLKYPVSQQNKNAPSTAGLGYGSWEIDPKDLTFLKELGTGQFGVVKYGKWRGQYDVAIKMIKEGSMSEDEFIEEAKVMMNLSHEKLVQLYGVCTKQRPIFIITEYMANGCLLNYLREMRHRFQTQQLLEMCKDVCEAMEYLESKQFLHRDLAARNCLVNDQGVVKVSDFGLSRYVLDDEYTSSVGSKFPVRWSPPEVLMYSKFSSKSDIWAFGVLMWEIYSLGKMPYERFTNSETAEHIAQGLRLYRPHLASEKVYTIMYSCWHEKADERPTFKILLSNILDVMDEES
For `C=CC(=O)N1C[C@@H]2C[C@]1(c1nc(-c3ccc(C(=O)Nc4ccccn4)cc3)c3c(N)nccn13)CCO2` [Example 7], the IC50 was 155 nM.
Regarding `CC#CC(=O)N1CCC2CC21c1nc(-c2ccc(C(C)(O)c3ccccc3)cc2)c2c(N)nccn12` (stereo not drawn) [Example 83], the 50% inhibitory concentration (IC50) stood at 46 nM.
As for `CC#CC(=O)N1C[C@H]2[C@@H]([C@H]1c1nc(-c3ccc(C(C)(O)c4ccccc4)cc3)c3c(N)nccn13)C2(C)C` (stereo partly drawn) [Example 76], the concentration for half-maximal inhibition (IC50) was 46 nM.
Regarding `CC#CC(=O)N1CC2(CC2)C[C@H]1c1nc(-c2ccc(C(=O)Nc3cc(C(F)(F)F)ccn3)cc2)c2c(N)nccn12` [Example 40, (S)-4-(8-amino-3-(5-(but-2-ynoyl)-5-azaspiro[2.4]heptan-6-yl)imidazo[1,5-a]pyrazin-1-yl 1)-N-(4-(trifluoromethyl)pyridin-2-yl)benzamide], the IC50 turned out to be 97 nM.
Consider `C=CC(=O)N1C2CN[C@@H](C2)C1c1nc(-c2ccc(C(=O)Nc3cc(Cl)ccn3)cc2)c2c(N)nccn12` (stereo partly drawn) [Example 72], for which the IC50 is 97 nM.
As to `CC(C)/C=C(/C#N)C(=O)N1CC2CCCC2[C@H]1c1nc(-c2ccc(C(=O)Nc3ccccn3)cc2)c2c(N)nccn12` (stereo partly drawn) [Example 117, 4-(8-amino-3-((1S)-2-((Z)-2-cyano-4-methyl-2-pentenoyl)octahydrocyclopenta [c]pyrrol-1-yl)imidazo[1,5-a]pyrazin-1-yl)-N-(pyridin-2-yl)benzamide], the IC50 was 104 nM.
The result for `C=CC(=O)N1CC2C[C@H]1C(c1nc(-c3ccc(C(=O)Nc4ccccn4)cc3)c3c(N)nccn13)N2` (stereo partly drawn) [Example 19] reads 400 nM; that for `CC#CC(=O)N1CC2COC[C@]2(c2nc(-c3ccc(C(=O)Nc4ccccn4)cc3)c3c(N)nccn23)C1` (stereo partly drawn) [Example 39], 68 nM.
The result for `CC#CC(=O)N1CC2CCCC2C1c1nc(-c2ccc(C(C)(O)c3ccccc3)cc2)c2c(N)nccn12` (stereo not drawn) [Example 78] reads 18.4 nM; that for `CC(C)/C=C(/C#N)C(=O)N1CC2(CC2)C[C@H]1c1nc(-c2ccc(C(=O)Nc3ccccn3)cc2)c2c(N)nccn12` [Example 116, (S,Z)-4-(8-amino-3-(5-(2-cyano-4-methyl-2-pentenoyl)-5-azaspiro [2.4]heptan-6-yl)imidazo[1,5-a]pyrazin-1-yl)-N-(pyridin-2-yl)benzamide], 276 nM; that for `C=CC(=O)N1C(c2nc(-c3ccc(C(=O)Nc4cc(C)ccn4)cc3)c3c(N)nccn23)CC2CC21` (stereo not drawn) [Example 64], 87 nM.
Turning to `CC#CC(=O)N1CCC2(CC2c2nc(-c3ccc(C(=O)Nc4ccccn4)cc3)c3c(N)nccn23)C1` (stereo not drawn) [Example 31], the concentration for half-maximal inhibition (IC50) is 736 nM.
For the compound `CC#CC(=O)N1CC2CCC1(c1nc(-c3ccc(C(=O)Nc4ccccn4)cc3)c3c(N)nccn13)CC2` [Example 121, 4-(8-amino-3-(2-(but-2-ynoyl)-2-azabicyclo[2.2.2]octan-1-yl)imidazo[1,5-a]pyrazin-1-yl)-N-(pyridin-2-yl)benzamide], the IC50 was determined as 43 nM.
As to `CC#CC(=O)N1C(c2nc(-c3ccc(Oc4ccccc4)cc3)c3c(N)nccn23)CC2CC21` (stereo not drawn) [Example 101], the IC50 is 77 nM.
On to `CC#CC(=O)N1C2CC[C@@H](C2)C1c1nc(-c2ccc(C(=O)Nc3cc(C)ccn3)cc2)c2c(N)nccn12` (stereo partly drawn) [Example 63], for which the half-inhibitory concentration (IC50) turned out to be 57 nM.
In the case of `CC#CC(=O)N1CCC2CC21c1nc(-c2ccc(C(=O)Nc3ccccn3)cc2)c2c(N)nccn12` (stereo not drawn) [Example 33], the IC50 amounted to 94 nM.
As to `CC#CC(=O)N1C(c2nc(-c3ccc(C(=O)Nc4cc(C)ccn4)cc3)c3c(N)nccn23)CC2CC21` (stereo not drawn) [Example 65], the IC50 is 58 nM.
For the compound `CC#CC(=O)N1CC2CCC1(c1nc(-c3ccc(C(=O)Nc4ccccn4)cc3)c3c(N)nccn13)C2` (stereo not drawn) [Example 123, 4-(8-amino-3-(2-(but-2-ynoyl)-2-azabicyclo[2.2.1]heptan-1-yl)imidazo[1,5-a]pyrazin-1-yl)-N-(pyridin-2-yl)benzamide], the concentration for half-maximal inhibition (IC50) came to 72 nM.
Consider `C=CC(=O)N1CCC2CC21c1nc(-c2ccc(C(=O)Nc3cc(C(F)(F)F)ccn3)cc2)c2c(N)nccn12` (stereo not drawn) [Example 58], for which the IC50 came to 78 nM.
In the case of `CC#CC(=O)N1C[C@@H]2C[C@]1(c1nc(-c3ccc(C(=O)Nc4ccccn4)cc3)c3c(N)nccn13)CCO2` [Example 8], the concentration for half-maximal inhibition (IC50) turned out to be 197 nM.
As to `CC#CC(=O)N1C[C@H]2[C@@H]([C@H]1c1nc(-c3ccc(C(=O)Nc4cc(C)ccn4)cc3)c3c(N)nccn13)C2(C)C` [Example 61], the IC50 was 31 nM.
Turning to `C=CC(=O)N1C(c2nc(-c3ccc(C(=O)Nc4cc(C(F)(F)F)ccn4)cc3)c3c(N)nccn23)CC2CC21` (stereo not drawn) [Example 50], the IC50 was determined as 69 nM.
The result for `CC#CC(=O)N1CCC2CC21c1nc(-c2ccc(C(=O)Nc3cc(C(F)(F)F)ccn3)cc2)c2c(N)nccn12` (stereo not drawn) [Example 59] reads 97 nM; that for `C=CC(=O)N1CCC2(CC2c2nc(-c3ccc(C(=O)Nc4ccccn4)cc3)c3c(N)nccn23)C1` (stereo not drawn) [Example 30], 724 nM; that for `C=CC(=O)N1C(c2nc(-c3ccc(Oc4ccccc4)cc3)c3c(N)nccn23)CC2CC21` (stereo not drawn) [Example 100], 67 nM.
The result for `CC#CC(=O)N1C(c2nc(-c3ccc(C(=O)Nc4cc(C(F)(F)F)ccn4)cc3)c3c(N)nccn23)CC2CC21` (stereo not drawn) [Example 51] reads 54 nM; that for `C=CC(=O)N1CC2(CCNCC2)CC1c1nc(-c2ccc(C(=O)Nc3ccccn3)cc2)c2c(N)nccn12` (stereo not drawn) [Example 36], 93 nM; that for `CC#CC(=O)N1C(c2nc(-c3ccc(C(=O)Nc4ccccn4)cc3)c3c(N)nccn23)CC2CC21` (stereo not drawn) [Example 25], 342 nM.
Regarding `CC#CC(=O)N1CC2C[C@H]1C(c1nc(-c3ccc(C(=O)Nc4ccccn4)cc3)c3c(N)nccn13)N2` (stereo partly drawn) [Example 21], the IC50 came out at 672 nM.
`C=CC(=O)N1CC2(CC2)C[C@H]1c1nc(-c2ccc(C(=O)Nc3cc(C(F)(F)F)ccn3)cc2)c2c(N)nccn12` [Example 41, (S)-4-(3-(5-acryloyl-5-azaspiro[2.4]heptan-6-yl)-8-aminoimidazo[1,5-a]pyrazin-1-yl)-N-(4-(trifluoromethyl)pyridin-2-yl)benzamide]: the IC50 amounted to 52 nM.
The result for `C=CC(=O)N1CC2CCC2(c2nc(-c3ccc(C(=O)Nc4ccccn4)cc3)c3c(N)nccn23)C1` (stereo not drawn) [Example 34] reads 66 nM; that for `CC#CC(=O)N1C(c2nc(-c3ccc(C(C)(O)c4ccccc4)cc3)c3c(N)nccn23)CC2CC21` (stereo not drawn) [Example 82], 382 nM; that for `CN(C/C=C/C(=O)N1CC2(CC2)C[C@H]1c1nc(-c2ccc(C(=O)Nc3ccccn3)cc2)c2c(N)nccn12)C1CC1` [Example 114, (S,E)-4-(8-amino-3-(5-(4-(cyclopropyl(methyl)amino)-2-butenoyl)-5-azaspiro[2.4]heptan-6-yl)imidazo[1,5-a]pyrazin-1-yl)-N-(pyridin-2-yl)benzamide], 81 nM.
`C=CC(=O)NC12CC3CC(C1)CC(c1nc(-c4ccc(C(=O)Nc5ccccn5)cc4)c4c(N)nccn14)(C3)C2` [Example 28]: the IC50 was 124 nM.
With `CC#CC(=O)NC12CC3CC(C1)CC(c1nc(-c4ccc(C(=O)Nc5ccccn5)cc4)c4c(N)nccn14)(C3)C2` [Example 29], the IC50 worked out at 216 nM.
The result for `C=CC(=O)N1CC2COC[C@]2(c2nc(-c3ccc(C(=O)Nc4ccccn4)cc3)c3c(N)nccn23)C1` (stereo partly drawn) [Example 38] reads 66 nM; that for `CC#CC(=O)N1CC2(CCNCC2)CC1c1nc(-c2ccc(C(=O)Nc3ccccn3)cc2)c2c(N)nccn12` (stereo not drawn) [Example 37], 46 nM; that for `C=CC(=O)N1C[C@H]2[C@@H]([C@H]1c1nc(-c3ccc(C(C)(O)c4ccccc4)cc3)c3c(N)nccn13)C2(C)C` (stereo partly drawn) [Example 75], 57 nM.
Turning to `C=CC(=O)N1C2C[C@@H](C1c1nc(-c3ccc(C(C)(O)c4ccccc4)cc3)c3c(N)nccn13)N(C(C)=O)C2` (stereo partly drawn) [Example 90], the IC50 stood at 79 nM.
The result for `CC#CC(=O)N1CCC2CC21c1nc(-c2ccc(Oc3ccccc3)cc2)c2c(N)nccn12` (stereo not drawn) [Example 103] reads 271 nM; that for `C=CC(=O)N1C(c2nc(-c3ccc(C(C)(O)c4ccccc4)cc3)c3c(N)nccn23)CC2CC21` (stereo not drawn) [Example 81], 178 nM; that for `C=CC(=O)N1C2C[C@@H](C1c1nc(-c3ccc(C(C)(O)c4ccccc4)cc3)c3c(N)nccn13)N(C)C2` (stereo partly drawn) [Example 88], 51 nM.
`C=CC(=O)N1CCC2(CC1)CC(c1nc(-c3ccc(C(=O)Nc4ccccn4)cc3)c3c(N)nccn13)CO2` (stereo not drawn) [Example 26]: the IC50 is 477 nM.
In the case of `C=CC(=O)N1CC2C[C@H]1C(c1nc(-c3ccc(C(=O)Nc4ccccn4)cc3)c3c(N)nccn13)N2C(C)=O` (stereo partly drawn) [Example 20], the IC50 was found to be 372 nM.
`C=CC(=O)N1C[C@H]2[C@@H]([C@H]1c1nc(-c3ccc(C(=O)Nc4cc(C)ccn4)cc3)c3c(N)nccn13)C2(C)C` [Example 60]: the IC50 stood at 51 nM.
Regarding `CC#CC(=O)N1CCC2(CC1)CC(c1nc(-c3ccc(C(=O)Nc4ccccn4)cc3)c3c(N)nccn13)CO2` (stereo not drawn) [Example 27], the IC50 worked out at 673 nM.
`CC#CC(=O)N1C2C[C@@H](C1c1nc(-c3ccc(C(=O)Nc4cc(C(F)(F)F)ccn4)cc3)c3c(N)nccn13)N(C(C)C)C2` (stereo partly drawn) [Example 57]: the half-inhibitory concentration (IC50) worked out at 59 nM.
As for `C=CC(=O)N1CCC2CC21c1nc(-c2ccc(Oc3ccccc3)cc2)c2c(N)nccn12` (stereo not drawn) [Example 102], the half-maximal inhibitory concentration (IC50) stood at 175 nM.
For `C=CC(=O)N1CC2CCC1(c1nc(-c3ccc(C(=O)Nc4ccccn4)cc3)c3c(N)nccn13)C2` (stereo not drawn) [Example 122, 4-(3-(2-acryloyl-2-azabicyclo[2.2.1]heptan-1-yl)-8-aminoimidazo[1,5-a]pyrazin-1-yl)-N-(pyridin-2-yl)benzamide], the IC50 worked out at 49 nM.
For `C=CC(=O)N1C(c2nc(-c3ccc(C(=O)Nc4ccccn4)cc3)c3c(N)nccn23)CC2CC21` (stereo not drawn) [Example 24], the 50% inhibitory concentration (IC50) is 176 nM.
The result for `CC#CC(=O)N1CC2CCC2(c2nc(-c3ccc(C(=O)Nc4ccccn4)cc3)c3c(N)nccn23)C1` (stereo not drawn) [Example 35] reads 67 nM.

What is called IC50 is the concentration at which inhibition is half-maximal.

These data come from patent US10793576B2, “Compound used as Bruton's tyrosine kinase inhibitor and preparation method and application thereof” (Chengdu Brilliant Pharmaceutical Co., LTD., priority 2017, dated 2020).
